Data published in PubChem BioAssay (NCI).
Values joined by “and” are separate entries in the source; they are usually repeats but may differ in a detail not shown here. Equal values may be shown once.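 Assay format: 96-well plates, 48-hour exposure. GI50 marks 50% less growth. The concentration for full growth arrest is given as TGI.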

Key:
Assay in all cases: inhibition of tumour cell growth, NCI panel, 48 h
DMS 273 small cell lung = system: DMS 273 small cell lung
HOP-18 NSCLC = system: HOP-18 NSCLC
LXFL 529 NSCLC = system: LXFL 529 NSCLC
KM20L2 colon = system: KM20L2 colon
M19-MEL melanoma = system: M19-MEL melanoma
DLD-1 colon = system: DLD-1 colon
DMS 114 small cell lung = system: DMS 114 small cell lung
DU-145 prostate = system: DU-145 prostate
MCF7 breast = system: MCF7 breast
MDA-MB-231 breast = system: MDA-MB-231 breast
NCI/ADR-RES ovarian = system: NCI/ADR-RES ovarian

Row | Structure (SMILES) | TGI (DMS 273 small cell lung) [µM] | TGI (HOP-18 NSCLC) [µM] | TGI (LXFL 529 NSCLC) [µM] | TGI (KM20L2 colon) | TGI (M19-MEL melanoma) [µM] | TGI (DLD-1 colon) [µM] | TGI (DMS 114 small cell lung) | GI50 (DMS 273 small cell lung) | GI50 (HOP-18 NSCLC) | GI50 (LXFL 529 NSCLC) | TGI (DU-145 prostate) [µM] | TGI (MCF7 breast) [µM] | TGI (MDA-MB-231 breast) [µM] | GI50 (NCI/ADR-RES ovarian) [µM] | TGI (NCI/ADR-RES ovarian) [µM]
1 | N#CC(C(=O)C(=O)NCCCNC(=O)C(=O)C(C#N)c1ccccc1)c1ccccc1 (stereo not drawn) | > 100 | > 100 | > 100 | > 100 µM | > 100 | > 100 | > 100 µM |  |  |  |  |  |  |  | 
2 | Cn1nc(-c2ccccc2)c(C(=O)/C=C/c2ccccc2)c(N2CCOCC2)c1=O | 51.4 | 89.7 | 34 | 42.9 µM | 61.2 | > 100 | 38.2 µM |  |  |  |  |  |  |  | 
3 | Cc1cc(=O)oc2cc3c(cc12)Oc1ccccc1O3 | > 100 | > 100 | > 100 | > 100 µM | > 100 | > 100 | > 100 µM |  |  |  |  |  |  |  | 
4 | COc1nc2nccc-2c2occn12 | > 100 | > 100 | > 100 | > 100 µM | > 100 | > 100 | > 100 µM |  |  |  |  |  |  |  | 
5 | CCOc1ccc(NCc2cc(OC)c(OC)c(OC)c2)cc1 | > 100 | > 100 | > 100 | 1.79 µM and 3.09 µM |  | > 100 | 3.17 µM and 20 µM | 0.296 µM and 0.821 µM | 2.46 µM and 10.2 µM | 0.839 µM and 2.67 µM | > 100 | > 100 | > 100 | 0.569 | > 100
6 | OCCCCCCOc1ccc(-c2cc(-c3ccccn3)nc(-c3ccccn3)c2)cc1 | 0.978 | 3.99 | 4.97 |  | 1.25 | 2.99 | 1.48 µM |  |  |  | 7.83 |  |  |  | 
7 | S=c1[nH]c2ccc(Br)cc2c(=S)n1-c1ccccc1 | 60.7 | 85.4 |  | > 100 µM | 60.7 | > 100 | 54.3 µM |  |  |  |  |  |  |  | 
8 | O=C1CC[C@@H](S(=O)(=O)c2ccccc2)[C@@H](/C=C/c2ccccc2)O1 |  | > 100 | > 100 | > 100 µM | > 100 |  | > 100 µM |  |  |  |  |  |  |  | 
9 | CC(C)CC1=[N+]=C(NC#N)N=C(CCC(=O)Nc2ccccc2[N+](=O)[O-])C1 |  | > 100 | > 100 | > 100 µM | > 100 | > 100 | > 100 µM |  |  |  |  |  |  |  | 
10 | CCC12CCCC(=O)N1C(CO)C(c1ccccc1)O2 (stereo not drawn) | > 100 | > 100 |  | > 100 µM | > 100 | > 100 | > 100 µM |  |  |  |  |  |  |  | 
11 | Cc1cccc(C(C)C)c1NC(=O)C(=O)CC(=O)c1c(C)n([O-])c2ccccc2[n+]1=O | 99.2 | > 100 | > 100 | > 100 µM | 50.6 |  | 52.1 µM |  |  |  |  |  |  |  | 
